Measured values reported in patent publication US20250177557A1, “METHODS OF PRODUCING MICROBUBBLE DRUG CONJUGATES, VIRAL GENE THERAPY MICROBUBBLE CONJUGATES AND TARGETED MICROBUBBLES” (priority 2022, published 2025).

Experiments:
[1] = patients; cited from earlier work
human SHSY-5Y cells = assay: Neuroprotection of differentiated SHSY-5Y cells against parkinsonian neurotoxins (CFDA cell viability); assay type: cell-based
Experimental: Neuroprotection was tested in the well-established neuronal model of human SHSY-5Y cells (Lopes, F. M.,. et al. (2010) Brain Res. 1337, 85-94) treated with parkinsonian neurotoxins. Human SHSY-5Y cells were grown in 24 well dishes and differentiated into neuron-like cells by treatment with 10 μM retinoic acid (RA) for 7 days (FIG. 8A).
Cell viability was quantified by the CFDA assay as described previously (Sandhu, J. K., et al. (2009) Neurobiol. Dis. 33, 405-414.).
Recombinant human GDNF at 50 ng/ml was used as a positive control.

[2] = MR guided focused ultrasound, one hemisphere sonicated
Experimental: AAV2-GFP MDCs were injected into healthy rodents and FUS sonications used to open the BBB in the two brain regions affected by Parkinson's disease, the striatum (ST) and substantia nigra (SN). MR contrast agent gadolinium was co-injected and MR imaging performed to confirm BBB opening in the two regions.
CDNF protein neurotrophic drug was conjugated to MDCs and delivered to the SN and ST in this manner. Only one hemisphere was sonicated so the animals acted as their own control.

[3] = brain mets patients; cited from earlier work

ipilimumab
Incidence of grade 3 or -4 treatment-related AEs [1]: 28%

CDNF-MDCs: Cerebral Dopamine Neurotrophic factor protein conjugated to microbubbles
Neuroprotection against thapsigargin (cell viability) (human SHSY-5Y cells; 1.0 μM thapsigargin ~16 h, pre-treatment, rhGDNF 50 ng/ml, CDNF-MDCs 25-250 ng/ml): completely protected | Neuroprotection against MPP+ (cell viability) (human SHSY-5Y cells; 1.0 mM MPP+ ~16 h, pre-treatment, rhGDNF 50 ng/ml, CDNF-MDCs 25-250 ng/ml): completely protected | Concentrations at which maximum neuroprotection was reached (human SHSY-5Y cells; MPP+ or thapsigargin): 25 to 250 ng/mL | CDNF concentration delivered to ST and SN, sonicated vs. non-sonicated hemisphere (ELISA tissue analysis) [2]: significant CDNF concentration delivered to the sonicated hemispheres

Keytruda: checkpoint inhibitor antibody
Response, share of patients [3]: about one third
